Like-named read-outs stand apart in the source and are kept apart here. Each block holds one molecule with its values, some of them ahead of it.
Key:
[1] = system: CYP7A1 expression in HuH-7 cells; test: CYP7A1 mRNA expression (qPCR, relative to Actin) in HuH-7 cells
Protocol: (§1) Fenofibrate or fenofibric acid was applied at a concentration of 2, 5, and 10 μM added simultaneously in combination with 30 nM of BLU-554 in growth media (DMEM supplemented with 10% Fetal Bovine Serum), for 18 hours. mRNA was then isolated and CYP7A1 expression was measured using TaqMan™ qPCR Assays (CYP7A1 assay ID: Hs00167982_m1, ACTNB assay ID: Hs99999903_m1).
(§2) Hep3B and HUH-7 cells were treated with 10 μg/ml mouse Isotype monoclonal IgG control (R&D-MAB002), or 2 μg/ml, 5 μg/ml, and 10 μg/ml of hFGF19 Antibody (R&D-AF969) for 24 hours. mRNA was then isolated and CYP7A1 expression was measured using qPCR. The depicted data represent the fold change in CYP7A1 mRNA levels compared to vehicle (DMSO) treated cells, and Actin was used as internal control.
(§3) Hep3B and HUH-7 cells were treated with 10 μg/ml of hFGF19 Antibody (R&D-AF969) in combination with 2 μM, 5 μM, or 10 μM of fenofibrate, for 24 hours. Two control groups included; untreated cells, and cell treated with 10 μg/ml mouse Isotype monoclonal IgG (R&D-MAB002), for 24 hours.

[2] = system: CYP7A1 expression in Hep3B cells; test: CYP7A1 mRNA expression (qPCR, relative to Actin) in Hep3B cells
Protocol: as §1, §2, §3

[3] = system: serum C4 (7-alpha-hydroxy-4-cholestene-3-one); test: Serum C4 in C57BL/6 mice dosed orally
Protocol: For the in vivo experiments, male C57BL/6 mice were dosed orally with vehicle, fenofibrate, an FGFR4 inhibitor, or with a combination of fenofibrate and an FGFR4 inhibitor at the doses indicated. Before the final day of the study, animals were fasted overnight and serum was collected 4 hours after the final dose. Serum C4 (7-alpha-hydroxy- 4-cholestene-3-one) analyses were carried out on an Agilent 6495 triple quadrupole mass spectrometer with jet stream source coupled to an Agilent 1290 UPLC stack. Data was processed using Waters TargetLynx data processing software. Calibration curves were generated using reference standard (7A4C; Sigma-Aldrich). Calibration range was from 0.5ng/ml-200 ng/ml with an internal deuterated standard (7A4C-D7; Avanti Polar Lipids) concentration of 100 ng/ml. […] When combination treatments were tested, the vehicle treatment groups received both vehicles, formulated separately. In the combination treatment groups, the compounds were formulated and dosed separately. The mean C4 value for each group of 4 mice is shown, and error bars represent standard error of the mean.

[4] = system: serum C4 (7-alpha-hydroxy-4-cholestene-3-one); test: Serum C4 in athymic nude mice carrying HuH-7 tumors; format: in vivo; settings: 14 days; for serum C4 levels: HuH-7 tumor-bearing mice, inhibitor alone: BLU554 100 mg/kg BID, FGF401 30 or 100 mg/kg BID
[5] = system: Cyp7a1 mRNA expression in mouse livers; test: Liver Cyp7a1 mRNA expression in mice
Protocol: For the in vivo experiments, male C57BL/6 mice were dosed orally with vehicle, fenofibrate, an FGFR4 inhibitor, or with a combination of fenofibrate and an FGFR4 inhibitor at the doses indicated. Before the final day of the study, animals were fasted overnight and serum was collected 4 hours after the final dose. Serum C4 (7-alpha-hydroxy- 4-cholestene-3-one) analyses were carried out on an Agilent 6495 triple quadrupole mass spectrometer with jet stream source coupled to an Agilent 1290 UPLC stack. Data was processed using Waters TargetLynx data processing software. Calibration curves were generated using reference standard (7A4C; Sigma-Aldrich). Calibration range was from 0.5ng/ml-200 ng/ml with an internal deuterated standard (7A4C-D7; Avanti Polar Lipids) concentration of 100 ng/ml. The vehicle for fenofibrate, FGF401 and H3B-6527 was 0.5% methylcellulose/0.5% tween 80 (MC/Tween), and the vehicle for BLU554 was 80% PEG400/4% hydroxypropyl-β-cyclodextrin (HPBCD). When combination treatments were tested, the vehicle treatment groups received both vehicles, formulated separately. In the combination treatment groups, the compounds were formulated and dosed separately.

[6] = system: serum C4 (7-alpha-hydroxy-4-cholestene-3-one); test: Serum C4 in athymic nude (Nu/Nu) mice; format: in vivo; settings: FGF401 at 30 mg/kg, H3B-6527 at 300 mg/kg
[7] = system: bile acid (BA) levels; test: Bile acid levels in liver, plasma and gallbladder of athymic nude mice; settings: oral, BID, 3 weeks; H3B-6527 300 mg/kg, FGF401 30 mg/kg; 4 hours after final dose; vs vehicle
Protocol: FIGS. 14A-14C are bar graphs depicting changes in bile acid (BA) levels (fold change over control) in liver (FIG. 14A), plasma (FIG. 14B), and gallbladder (FIG. 14C) of athymic nude (Nu/Nu) mice treated orally with vehicle ((1) 0.5% MC/tween), H3B-6527 ((2) 300 mg/kg, BID), or FGF401/Roblitinib ((3) 30 mg/kg, BID), for 3 weeks. Four hours after the final dose, mice were euthanized and plasma, liver and gallbladder samples were collected, and bile acid levels measured.
FIGS. 14A-14C are bar graphs depicting changes of bile acid (BA) levels (fold change over control) in liver (FIG. 14A), plasma (FIG. 14B), and gallbladder (FIG. 14C) of athymic nude (Nu/Nu) mice treated orally with vehicle (0.5% MC/tween), H3B-6527 (300 mg/kg, BID), or FGF401/Roblitinib (30 mg/kg, BID), for 3 weeks. Four hours after the final dose, mice were euthanized and plasma, liver and gallbladder samples were collected and bile acid levels measured. Bile acids were measured at the metabolomics core facility of University of Kansas Medical Center, following an established protocol.

CYP7A1 expression (Relative mRNA expression/Actin) [1]: increased CYP7A1 expression
CYP7A1 expression (Relative mRNA expression/Actin) [2]: increased CYP7A1 expression
levels of serum C4 ([3]; C57BL/6 mice, BLU554 at 100 mg/kg): increases in levels of serum C4
serum C4 levels [4]: significantly raised levels
liver Cyp7a1 mRNA expression (% Actb) ([5]; BLU-554 (100 mg/kg) alone): Cyp7a1 upregulation
SMILES: C=CC(=O)N[C@H]1CCOC[C@H]1Nc1ncc2cc(-c3c(Cl)c(OC)cc(OC)c3Cl)ccc2n1 [BLU-554, fisogatinib]

CYP7A1 expression (Relative mRNA expression/Actin) [1]: increased CYP7A1 expression
CYP7A1 expression (Relative mRNA expression/Actin) [2]: increased CYP7A1 expression
levels of serum C4 [6]: increases in levels of serum C4
bile acids level in gall bladder (fold change over control) [7]: increased bile acids level
bile acids level in liver (fold change over control) [7]: increased bile acids level
bile acids level in plasma (fold change over control) [7]: increased bile acids level
serum C4 levels [4]: significantly raised levels
SMILES: COCCNc1cc(NC(=O)N2CCCc3cc(CN4CCN(C)CC4=O)c(C=O)nc32)ncc1C#N [FGF-401, roblitinib]

More lines, now with the values behind:

SMILES: C=CC(=O)Nc1cc(N2CCN(CC)CC2)ccc1Nc1cc(N(C)C(=O)Nc2c(Cl)c(OC)cc(OC)c2Cl)ncn1 [H3B-6527]
levels of serum C4 [6]: increases in levels of serum C4

SMILES: COc1cc(OC)cc(N(CCNC(C)C)c2ccc3ncc(-c4cnn(C)c4)nc3c2)c1 [erdafitinib]
CYP7A1 expression (Relative mRNA expression/Actin) [1]: increased CYP7A1 expression
CYP7A1 expression (Relative mRNA expression/Actin) [2]: increased CYP7A1 expression

SMILES: CC(C)OC(=O)C(C)(C)Oc1ccc(C(=O)c2ccc(Cl)cc2)cc1 [fenofibrate]
serum C4 levels ([3]; different doses of fenofibrate in combination with BLU-554 (100 mg/Kg), 6 days): reduced the increase in C4 caused by BLU554
rise in serum C4 ([4]; fenofibrate 40 mg/kg QD plus BLU554 100 mg/kg BID): significantly attenuated the rise in C4
rise in serum C4 ([4]; fenofibrate 40 mg/kg QD plus FGF401 30 mg/kg BID): attenuated the rise in C4
liver Cyp7a1 mRNA expression (% Actb) ([5]; fenofibrate co-administered with BLU-554 (100 mg/kg)): reversed BLU-554-induced Cyp7a1 upregulation in mouse livers, in a dose dependent manner

SMILES: C=CC(=O)N1CC[C@H](n2nc(C#Cc3cc(OC)cc(OC)c3)c3c(N)ncnc32)C1 [futibatinib]
CYP7A1 expression (Relative mRNA expression/Actin) ([1]; HuH-7 cells, increasing concentrations of inhibitor alone, 18 hours): increased CYP7A1 expression
CYP7A1 expression (Relative mRNA expression/Actin) ([2]; Hep3B cells, increasing concentrations of inhibitor alone, 18 hours): increased CYP7A1 expression

From patent publication US20250345333A1, “THERAPIES WITH PPAR AGONISTS AND FGFR4 INHIBITORS” (TYRA BIOSCIENCES, INC., priority 2022, published 2025)
